Here are results for 12 compounds from ChEMBL document CHEMBL1147725, “Identification and biological characterization of 6-aryl-7-isopropylquinazolinones as novel TRPV1 antagonists that are effective in models of chronic pain” (J Med Chem, 2006).

Data set [1] can be described thus: Half life in rat at 3 mg/kg, po. Type of data set: ADME, organism-based. The following applies: Wistar Han, in vivo. Also on record: dose 3 mg/kg, route oral.
For data set [2], the target named is T1, Transient receptor potential cation channel subfamily V member 1 (Homo sapiens, UniProt Q8NER1). In words: Inhibition of low pH activation of human TRPV1. In kind it is functional.
T1 sequence (Q8NER1 whole entry): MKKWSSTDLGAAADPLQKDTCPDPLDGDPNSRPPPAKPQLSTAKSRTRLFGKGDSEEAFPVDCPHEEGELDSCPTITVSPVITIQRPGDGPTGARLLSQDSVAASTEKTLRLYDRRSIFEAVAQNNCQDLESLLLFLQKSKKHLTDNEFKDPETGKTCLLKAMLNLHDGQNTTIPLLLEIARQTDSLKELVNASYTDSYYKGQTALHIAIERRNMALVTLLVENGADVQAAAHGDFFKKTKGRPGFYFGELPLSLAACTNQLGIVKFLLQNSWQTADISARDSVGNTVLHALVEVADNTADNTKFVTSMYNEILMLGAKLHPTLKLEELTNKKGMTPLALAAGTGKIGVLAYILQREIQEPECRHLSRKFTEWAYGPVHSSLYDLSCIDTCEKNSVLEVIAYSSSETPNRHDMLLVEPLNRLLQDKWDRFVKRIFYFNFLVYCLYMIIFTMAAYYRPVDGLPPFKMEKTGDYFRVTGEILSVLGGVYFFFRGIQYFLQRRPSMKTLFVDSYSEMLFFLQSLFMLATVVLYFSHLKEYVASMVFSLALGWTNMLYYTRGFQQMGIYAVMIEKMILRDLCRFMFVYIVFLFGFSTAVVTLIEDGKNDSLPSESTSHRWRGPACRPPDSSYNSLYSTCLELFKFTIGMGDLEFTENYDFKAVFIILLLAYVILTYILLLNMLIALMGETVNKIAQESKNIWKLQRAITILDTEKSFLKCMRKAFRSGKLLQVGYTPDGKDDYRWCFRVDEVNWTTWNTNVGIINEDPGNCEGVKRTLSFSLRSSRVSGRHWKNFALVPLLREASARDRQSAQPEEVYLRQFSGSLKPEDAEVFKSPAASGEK
Data set [3] is described as follows: Aqueous solubility at pH 6.8 and 25 degC. In kind it is physicochemical. The following applies: aqueous medium.
The target of data set [4] is T1, Transient receptor potential cation channel subfamily V member 1. Briefly: Inhibition of calcium influx evoked by capsaicin in human TRPV1 expressing cells by fluorescence assay. In kind it is functional.
Data set [5] has as its target T2, Transient receptor potential cation channel subfamily V member 1 (Rattus norvegicus, UniProt O35433). Briefly: Inhibition of calcium influx evoked by capsaicin in rat TRPV1 expressing cells by fluorescence assay. In kind it is functional, cell-based.
Data set [6] addresses T2, Transient receptor potential cation channel subfamily V member 1. Briefly: Inhibition of low pH activation of rat TRPV1. In kind it is functional.

Each structure is given as a SMILES string. ≈ marks a conversion by molar mass, not a printed value.

T2 sequence (O35433 whole entry): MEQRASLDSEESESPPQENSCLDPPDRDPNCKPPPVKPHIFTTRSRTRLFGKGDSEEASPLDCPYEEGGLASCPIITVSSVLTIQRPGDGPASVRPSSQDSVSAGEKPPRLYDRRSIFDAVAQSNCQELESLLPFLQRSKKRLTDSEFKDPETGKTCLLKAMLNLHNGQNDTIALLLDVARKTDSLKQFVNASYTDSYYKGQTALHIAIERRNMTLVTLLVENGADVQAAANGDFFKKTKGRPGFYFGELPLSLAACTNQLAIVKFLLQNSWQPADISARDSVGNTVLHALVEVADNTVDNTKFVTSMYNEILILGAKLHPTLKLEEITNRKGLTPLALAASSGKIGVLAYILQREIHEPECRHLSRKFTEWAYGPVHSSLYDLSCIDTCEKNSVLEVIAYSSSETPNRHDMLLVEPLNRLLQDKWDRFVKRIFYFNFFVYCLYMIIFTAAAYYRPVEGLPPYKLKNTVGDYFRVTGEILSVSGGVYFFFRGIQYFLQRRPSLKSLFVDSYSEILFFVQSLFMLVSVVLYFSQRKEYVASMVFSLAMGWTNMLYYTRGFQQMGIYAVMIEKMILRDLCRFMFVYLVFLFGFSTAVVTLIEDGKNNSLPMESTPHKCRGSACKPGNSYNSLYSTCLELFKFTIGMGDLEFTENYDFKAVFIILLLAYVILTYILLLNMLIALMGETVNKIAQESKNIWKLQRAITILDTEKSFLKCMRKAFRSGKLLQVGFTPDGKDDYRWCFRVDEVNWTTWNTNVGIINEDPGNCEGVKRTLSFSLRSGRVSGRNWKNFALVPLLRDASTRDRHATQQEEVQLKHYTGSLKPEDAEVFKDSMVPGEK

For orientation: half-life means how long it takes for the measured level to halve. As usually defined, the IC50 is the point on the concentration scale where inhibition reaches its midpoint. What is called solubility is the concentration that dissolves in the medium under given conditions. Read a low solubility as little dissolved substance. `CC(C)(C)c1nc2[nH]c(=S)[nH]c(=O)c2cc1-c1ccc(Cl)cc1` had a half-life in data set [1] of 7.5 h. In data set [2], this compound registered a 50% inhibitory concentration (IC50) of 18 nM. The same compound yielded a solubility in data set [3] of 0.15 µg/mL (≈ 0.434 µM).
Regarding `Cc1nc(O)c2cc(-c3ccc(Cl)c(OC(C)C)c3)c(C(C)C)cc2n1`, the concentration for half-maximal inhibition (IC50) in data set [4] is 201 nM.
On to `CC(C)(C)c1nc2[nH]c(=S)[nH]c(=O)c2cc1-c1ccccc1`, for which the IC50 in data set [4] came to 100 nM; in data set [2], 49 nM; in data set [5] it was 90 nM; in data set [6] it was 25 nM.
In the case of `Cc1nc(O)c2cc(-c3ccc4c(c3)OCO4)c(C(C)C)cc2n1`, the 50% inhibitory concentration (IC50) in data set [4] was 31 nM.
Still for that read-out and setting: then `CCc1nc2cc(C(C)C)c(-c3ccc(Cl)cc3)cc2c(=O)[nH]1`, with above 1000 nM; and `Cc1nc2cc(C(C)C)c(-c3ccc(Cl)c(F)c3)cc2c(=O)[nH]1`, with 23 nM; and `Oc1cc2c(cc1O)CN(C(=S)NCCc1ccc(Cl)cc1)CCC2` [CAPSAZEPINE], with 334 nM.
Still for that read-out and setting: the figure for `COc1cc(-c2cc3c(=O)[nH]c(C)nc3cc2C(C)C)ccc1Cl` is 14 nM.
Turning to `Cc1nc(O)c2cc(-c3ccc(Cl)c(OCC4CCC4)c3)c(C(C)C)cc2n1`, the IC50 in data set [4] is 144 nM.
Take `COc1cc(Cl)cc(-c2cc3c(O)nc(C)nc3cc2C(C)C)c1`: the 50% inhibitory concentration (IC50) in data set [4] is 100 nM.
Turning to `Cc1nc2cc(C(C)C)c(-c3ccc(Cl)cc3)cc2c(=O)[nH]1`, in data set [4], the concentration for half-maximal inhibition (IC50) is 13 nM. The same compound returned a solubility in data set [3] of 4 µg/mL (≈ 12.8 µM).
For the compound `CCOc1cc(-c2cc3c(=O)[nH]c(C)nc3cc2C(C)C)ccc1OC`, the IC50 in data set [4] was found to be 286 nM.
